{"source": "patent US20190015379A1", "about": "“USE OF DIANHYDROGALACTITOL AND ANALOGS AND DERIVATIVES THEREOF, TOGETHER WITH RADIATION, TO TREAT NON-SMALL-CELL CARCINOMA OF THE LUNG AND GLIOBLASTOMA MULTIFORME AND SUPPRESS PROLIFERATION OF CANCER STEM CELLS” (DelMar Pharmaceuticals, Inc., priority 2014, published 2019)", "key": {"[1]": {"test_system": "A549 human lung adenocarcinoma xenograft tumors", "assay": "A549 NSCLC xenograft tumor growth in Rag2 mice", "type": "in vivo, female Rag2 mice", "procedure": "The purpose of the study reported in this Example is to evaluate the activity of dianhydrogalactitol in in vivo models of drug-resistant NSCLC in comparison to other drugs, including cisplatin. Rag2 mice bearing subcutaneous human lung adenocarcinoma xenograft tumors of either TKI-resistant (H1975) or TKI-sensitive (A549) origin were treated.\nTwo human NSCLC cell lines, A549 (TKI-sensitive) and H1975 (TKI-resistant), were used as xenograft tumor models in female Rag2 mice. The mice were 6 to 8 weeks of age and weighed 18-23 grams. 10 mice were used per group.\nCisplatin was used in normal saline at a dose of 5 mg/kg. Administration was intravenous.\nDianhydrogalactitol was used in 0.9% sodium chloride for injection at 1.5 mg/kg to 6 mg/kg. Administration was intraperitoneal.\nTreatment was initiated at a tumor volume of 100 mm^3 to 150 mm^3.\nOn day 0, tumor cells were implanted subcutaneously into mice in a volume of 50 μL in Matrigel™ using a 28-gauge needle; injection of the tumor cells was in the back of the mice. Mice were randomly assigned to groups based on tumor volume.\n(§1) Tumor growth was monitored by measuring tumor dimensions with calipers beginning on the first day of treatment. Tumor length and width measurements were obtained each Monday, Wednesday, and Friday. Tumor volumes were calculated according to the equation L×W^2/2 with the length (in mm) being defined as the longer axis of the tumor. Animals were weighed at the time of tumor measurement. Tumors were allowed to grow to a maximum of 800 mm^3 before termination."}, "[2]": {"assay": "Tolerability in A549 tumor-bearing Rag2 mice (body weight, CBC, clinical observations)", "procedure": "as §1\nAll animals had blood collected by cardiac puncture at termination for CBC (complete blood count) with differentiation.\nIn particular, signs of ill-health were based on body weight loss, change in appetite, and behavioral signs such as altered gait, lethargy, and gross manifestations of stress. If signs of severe toxicity or tumor-related illness were seen, the animals were terminated by isoflurane overdose followed by CO2 asphyxiation, and a necropsy was performed to assess other signs of toxicity. The following organs were examined: liver, gall bladder, spleen, lung, kidney, heart, intestine, lymph nodes, and bladder. Any unusual findings were noted."}, "[3]": {"assay": "Stability of reconstituted dianhydrogalactitol stock solution", "type": "physicochemical", "conditions": "8 mg/mL in 0.9% sodium chloride for injection", "procedure": "Dianhydrogalactitol (DAG) was provided as a lyophilized product at 40 mg of DAG per vial. For administration, 5 mL of 0.9% sodium chloride for injection, USP (saline) was added to yield a DAG solution with a concentration of 8 mg/mL. This stock solution was stable for 4 hours at room temperature or for 24 hours at 4° C. Further dilutions were made to prepare solutions of injection of 0.9 mg/mL (for administration of 0.18 mg/mouse in 0.2 mL; diluted from the 8 mg/mL reconstituted solution); of 0.45 mg/mL (for administration of 0.09 mg/mouse in 0.2 mL; a 1 to 2 dilution of the 0.9 mg/mL solution); and of 0.225 mg/mL (for administration of 0.045 mg/mouse in 0.2 mL; a 1 to 2 dilution of the 0.45 mg/mL solution)."}, "[4]": {"assay": "Phase I/II dose-escalation study, safety (DLT, SAE, MTD)", "type": "in vivo, human", "conditions": "for drug-related serious adverse events: dose cohorts completed to date", "description": "The methodology of the study reported in this Example is as follows: An open-label, single arm Phase I/II dose-escalation study designed to evaluate the safety, tolerability, pharmacokinetics and anti-tumor activity of dianhydrogalactitol in patients with: (i) histologically confirmed initial diagnosis of primary WHO Grade IV malignant GBM, now recurrent, or (ii) progressive secondary brain tumor, having failed standard brain radiotherapy, and with brain tumor progression after at least one line of systemic therapy. The study utilizes a 3+3 dose escalation design, until the MTD or the maximum specified dose is reached. […] In Phase II, additional patients will be treated at the MTD (or other selected optimum Phase II dose) to measure tumor responses. All patients enrolled have previously been treated with surgery and/or radiation, if appropriate, and must have failed both bevacizumab and TMZ, unless contraindicated. For these studies, the following is a summary of the inclusion criteria: (1) Patients must be greater than or equal to 18 years old. (2) There is a histologically confirmed initial diagnosis of primary WHO Grade IV malignant glioma (glioblastoma), now recurrent, or progressive secondary brain tumor, the patient has failed standard brain radiotherapy, and the patient has brain tumor progression after at least one line of systemic therapy. […] (4) The patient must have a predicted life expectancy of at least 12 weeks. The following is a summary of the exclusion criteria: (1) There is a current history of neoplasm other than the entry diagnosis. Patients with previous cancers treated and cured with local therapy alone may be considered. (2) There is evidence of leptomeningeal spread of disease. […] (4) The patient had undergone prior treatment with intracerebral agents. […] (6) The patient is being administered concomitant medications that are strong inhibitors of cytochrome P450 and CYP3A up to 14 days before Cycle 1, Day 1 (pimozide, diltiazem, erythromycin, clarithromycin, and quinidine, and amiodarone up to 90 days before.\nEnrollment and evaluation of Cohort 7 (40 mg/m^2) is ongoing. Higher doses may be enrolled subject to completion of mandated safety observation period with Cohort 6 (30 mg/m^2). Patients enrolled present with refractory progressive GBM and a dire prognosis. […] The primary endpoint of this portion of the study is to determine a modernized dosing regimen for advancement to registration-directed clinical trials. […] In this design, it is not possible to perform a rigorous assessment of patient benefit due to slowed tumor growth. Tumor volume is assessed during the study based on RANO criteria. […] Outcomes analysis of cohort 6 is ongoing. These preliminary data support continued exploration of higher dose cohorts."}, "[5]": {"test_system": "normal human neural stem cells", "conditions": "neurosphere growth assays; Hu et al. 2012; cited from earlier work"}, "[6]": {"conditions": "in vivo; cited from earlier work"}, "[7]": {"conditions": "dianhydrogalactitol 1.5 mg/kg i.p. (group 3)"}, "[8]": {"conditions": "dianhydrogalactitol 3 mg/kg i.p. (group 4)"}, "[9]": {"conditions": "secondary brain tumor patients, n = 6"}}}
{"substance": "dianhydrogalactitol", "values": [{"measurement": "day on which a mean tumor volume of 200 mm^3 was observed", "setting": "[1]; [7]", "value": 45, "unit": "days"}, {"measurement": "day on which a mean tumor volume of 400 mm^3 was reached", "setting": "[1]; [7]", "value": 67, "unit": "days"}, {"measurement": "tumor doubling time", "setting": "[1]; [7]", "value": 22}, {"measurement": "number of animals remaining on study on day 70", "setting": "[1]; dianhydrogalactitol 1.5 mg/kg i.p. M, W, F for 3 weeks (group 3)", "value": "7/10"}, {"measurement": "tumor growth delay compared to untreated controls", "setting": "[1]; dianhydrogalactitol 3 mg/kg i.p.", "value": 26, "unit": "days"}, {"measurement": "day on which a mean tumor volume of 200 mm^3 was observed", "setting": "[1]; [8]", "value": 42, "unit": "days"}, {"measurement": "day on which a mean tumor volume of 400 mm^3 was reached", "setting": "[1]; [8]", "value": 81, "unit": "days"}, {"measurement": "tumor doubling time", "setting": "[1]; [8]", "value": 39}, {"measurement": "number of animals remaining on study on day 70", "setting": "[1]; dianhydrogalactitol 3 mg/kg i.p. M, W, F for 3 weeks (group 4)", "value": "6/10"}, {"measurement": "day on which a mean tumor volume of 200 mm^3 was observed", "setting": "[1]; dianhydrogalactitol 6 mg/kg i.p. (group 5)", "value": 54, "unit": "days"}, {"measurement": "number of animals remaining on study on day 70", "setting": "[1]; dianhydrogalactitol 6 mg/kg i.p. (group 5; stopped after 3 doses)", "value": "8/10"}, {"measurement": "body weight loss", "setting": "[2]; dianhydrogalactitol 6 mg/kg (group 5)", "value": "body weight loss was observed"}, {"measurement": "tolerability of the dosage", "setting": "[2]; dianhydrogalactitol 6 mg/kg, only 3 of 9 scheduled doses administered", "value": "significant weight loss and morbidity"}, {"measurement": "hemoglobin (g/L), CBC at termination, versus untreated control", "setting": "[2]; groups 4 or 5 (dianhydrogalactitol 3 or 6 mg/kg)", "value": "Statistical significance (p<0.05)"}, {"measurement": "stability of stock solution", "setting": "[3]; 4° C.", "value": 24, "unit": "h"}, {"measurement": "stability of stock solution", "setting": "[3]; room temperature", "value": 4, "unit": "h"}, {"measurement": "Status (DLT)", "setting": "[4]; 1.5 mg/m^2, cumulative 9 mg/m^2 in 33-day cycle", "value": "Completed - No DLT"}, {"measurement": "Status (DLT)", "setting": "[4]; 3.0 mg/m^2, cumulative 18 mg/m^2 in 33-day cycle", "value": "Completed - No DLT"}, {"measurement": "Status (DLT)", "setting": "[4]; 5.0 mg/m^2, cumulative 30 mg/m^2 in 33-day cycle", "value": "Completed - No DLT"}, {"measurement": "Status (DLT)", "setting": "[4]; 10.0 mg/m^2, cumulative 60 mg/m^2 in 33-day cycle", "value": "Completed - NO DLT"}, {"measurement": "Status (DLT)", "setting": "[4]; 20.0 mg/m^2 (revised scheme), cumulative 120 mg/m^2 in 33-day cycle", "value": "Completed - NO DLT"}, {"measurement": "Status (DLT)", "setting": "[4]; 30.0 mg/m^2 (revised scheme), cumulative 180 mg/m^2 in 33-day cycle, analysis ongoing", "value": "Completed - No DLT"}, {"measurement": "DLT", "setting": "[4]; GBM patients, n = 8", "value": "None"}, {"measurement": "drug-related serious adverse events", "setting": "[4]", "value": "No drug-related serious adverse events have been detected"}, {"measurement": "drug-related serious adverse events", "setting": "[4]; listed as Dianhydrogalactitol", "value": "no drug-related serious adverse events have been detected"}, {"measurement": "maximum tolerated dose (MTD), as 33 day cycle cumulative dose", "setting": "[4]; five dose cohorts completed, not yet reached", "value": "> 120", "unit": "mg/m^2"}, {"measurement": "maximum tolerated dose (MTD)", "setting": "[4]; i.v. on days 1, 2, and 3 of each 21-day cycle, not reached", "value": "> 30", "unit": "mg/m^2"}, {"measurement": "DLT", "setting": "[4]; [9]", "value": "None"}, {"measurement": "SAE", "setting": "[4]; [9]", "value": "None (n = 5)"}, {"measurement": "effect on normal human neural stem cells", "setting": "[5]", "value": "minimal effect"}, {"measurement": "blood-brain barrier passage", "setting": "[6]", "value": "readily crosses the blood-brain barrier and accumulates in brain tissue"}]}
